In patent US8258128B2, “Organic compounds” (Novartis AG, priority 2006, dated 2012):
“And” between values parts separate entries of the source, which are not always exact repeats. Equal entries are not always repeated.

How the values were obtained:
[1] = test system: urate crystal induced synovitis of the stifle joint in dogs; test: Urate crystal induced synovitis of the stifle joint in dogs, force plate analysis; assay type: in vivo, dog; details: for Z peak force of the injected rear leg, percent of pre-values, Mean: six dogs
Text: Objective: The objective of this study is to evaluate the analgesic and anti-inflammatory effect of a single dose of COMPOUND A using a model of urate crystal induced synovitis of the stifle joint in dogs via kinetic gait analysis (force plate).
Animals: A total of six Beagle dogs (4 males and 2 females) aged between 2 and 9 years and weighing 13 to 15.8 kg are recruited for this study. The dogs are housed in groups of two in light and temperature controlled pens. Each dogs is offered 150-300 g dry pellet food once a day in the morning. Water is available ad libitum through nipple drinkers.
Acute synovitis model: In this study, acute but reversible arthritis is induced by intra-articular (left or right stifle joint) injection of a saline (NaCl 0.9%) suspension containing 15 mg of monosodium urate crystals.
Intra-articular injections: Dogs are sedated with medetomidine (40 microg/kg, i.v.). The left of right stifle joint is clipped and prepared aseptically for intrasynovial injection. A 20-gauge needle is inserted lateral to the patellar ligament and introduced into the articular space. To ensure correct placement of the needle, a small amount of synovial fluid is aspirated with an empty 2 ml syringe. Then, approximately 2 ml of the monosodium urate suspension is injected in the joint cavity through the previously placed needle. Sedation is then antagonized with injection of atipamezol (40 μg/kg, i.v.). Dogs are then brought back to their pens for approximately 3 hours. Usually, after this period, the lameness induced by the injection of the monosodium urate crystals suspension is developed to a point where the dogs become non-weight-bearing on the injected leg during standing, walking and trotting. If at this time the dog's lameness grade is not sufficient, the dogs are excluded from this part of the trial.
Treatments: According to the protocol, both treatments are administered via the oral route approximately 3 hours after the injection of the monosodium urate crystals suspension, and only to the dogs that developed a high-grade lameness. For part 1, half of the dogs are allocated to the COMPOUND A-treated group and the other dogs are allocated to the control group. For part 2, treatments are crossed, so that dogs that are treated with COMPOUND A in part 1 are administered the placebo treatment, and vice versa. The treatments are administered at the doses of 0 mg/kg (placebo) and 2 mg/kg. COMPOUND A is mixed to a placebo formulation (micro-emulsion vehicle without active ingredient) just before administration. The appropriate volumes based on the dogs' bodyweights are given per os with syringes. Thereafter, all syringes are rinsed with NaCl 0.9% and applied to the dogs. The control dogs receive 10 ml of the identical placebo formulation.
Force plate analysis: A biomechanical platform (OR6-6-1000, Advanced Mechanical Technologies Inc., Watertown, Mass.) that measures 3 dimensional forces and impulses is used for our study. The dogs are trotted over the force plate 1, 2, 3, 4 and 6 hours after administration of the treatments to obtain data of vertical forces and impulses of the affected limb. Baseline values included force plate data obtained the day before the induction of lameness and are set as 100% of the dog's capacity. In order to minimize the effect of inter-individual variation we choose to calculate and express the measured data as percentage of the baseline values. By use of a software (Acquire Software 7.20e, Robert Wells, Mich. State University, East Lansing, Mich.) installed with the force plate and a computer, the vertical peak force (ZpkF) is measured. All data are normalized to the bodyweight of the dogs. Data on other ground reaction forces (e.g. vertical impulse, braking and propulsion peak forces) are also recorded and stored but not analyzed. Data from 5 to 6 valid trials of the injected limb at a given measurement time point are averaged and expressed as percentage of the pre-values. […]

[2] = test system: rat carrageenan edema model; test: Carrageenan edema in the rat (paw swelling); assay type: in vivo
Description: Carrageenan edema in the rat: The effects of COMPOUND A are investigated in the carrageenan edema model. In this model an acute paw swelling is induced by the sub-plantar injection of carrageenan. The paw swelling has a duration of approximately 8 hours and is completely resolved at 24 hours. The model is used to assess anti-inflammatory activities of new therapeutics and is also sensitive to drugs such as COX-inhibitors like Diclofenac, which is used as a positive control compound in the model.
Method: Male OFA rats (5 animals/group) are treated orally with COMPOUND A (1, 3 and 9 mg/kg), Diclofenac (3 mg/kg) or vehicle (placebo formulation). One hour later (0 hours) the rats receive a 100 μl intra-plantar injection of a 1% w/v carrageenan solution in 0.9% saline in the hind paw and the diameter of the paw is measured by means of a micro-caliper. The paw diameter measurements are repeated 3 and 5 hours after injection of the carrageenan. Percentage inhibition of paw swelling at 3 and 5 hours is calculated by reference to vehicle treated animals (0% inhibition).
Edema is induced by a sub-plantar injection of carrageenan in the paw of the rat. Paw diameters are measured at the time of carrageenan injection (0 hours) and at 3 and 5 hours. Compounds are administered 1 hour before the carrageenan injection. COMPOUND A was dosed at 1, 3 and 9 mg/kg p.o. and Diclofenac at 3 mg/kg p.o.

## COC1=Nc2cc(Cl)ccc2/C(=C/C(=O)O)c2sc(Cl)cc21 [COMPOUND A, [2,7-Dichloro-10-methoxy-3-thia-9-aza-benzo[f]azulen-(4Z)-ylidene]-acetic acid]
[1]; 2 mg/kg p.o., T + 1 H
  Z peak force of the injected rear leg, percent of pre-values, individual dogs: 0.0%
  Z peak force of the injected rear leg, percent of pre-values, Mean: 0.0%
[1]; 2 mg/kg p.o., T + 2 H
  Z peak force of the injected rear leg, percent of pre-values, individual dogs: 0.0% (5×) and 65.8%
  Z peak force of the injected rear leg, percent of pre-values, Mean: 11.0%
[1]; 2 mg/kg p.o., T + 3 H
  Z peak force of the injected rear leg, percent of pre-values, individual dogs: 86.7% and 93.8% and 71.9% and 79.1% and 0.0% (2×)
  Z peak force of the injected rear leg, percent of pre-values, Mean: 55.2%
[1]; 2 mg/kg p.o., T + 4 H
  Z peak force of the injected rear leg, percent of pre-values, individual dogs: 80.9% and 87.1% and 103.1% and 82.5% and 58.2% and 0.0%
  Z peak force of the injected rear leg, percent of pre-values, Mean: 68.6%
[1]; 2 mg/kg p.o., T + 6 H
  Z peak force of the injected rear leg, percent of pre-values, individual dogs: 78.5% and 106.1% and 87.7% and 85.2% and 83.7%
  Z peak force of the injected rear leg, percent of pre-values, Mean: 91.2%
[1]; Prevs (day before induction of lameness, set as 100%), 2 mg/kg p.o. group, dogs 519, 525, 652, 664, 2201, 2207
  Z peak force of the injected rear leg, percent of pre-values, individual dogs: 100.0%
[1]; Prevs (set as 100%), 2 mg/kg p.o. group
  Z peak force of the injected rear leg, percent of pre-values, Mean: 100.0%
[2]; 1 mg/kg p.o., 3 hrs after carrageenan
  % inhibition of paw swelling: 58%
[2]; 1 mg/kg p.o., 5 hrs after carrageenan
  % inhibition of paw swelling: 65%
[2]; 3 mg/kg p.o., 3 hrs after carrageenan
  % inhibition of paw swelling: 67%
[2]; 3 mg/kg p.o., 5 hrs after carrageenan
  % inhibition of paw swelling: 48%
[2]; 9 mg/kg p.o., 3 hrs after carrageenan
  % inhibition of paw swelling: 88%
[2]; 9 mg/kg p.o., 5 hrs after carrageenan
  % inhibition of paw swelling: 74%
[2]; after 3 and 5 hours, dose of 1 to 9 mg/kg
  inhibition in the carrageenan edema model (in words): dose-related inhibition
